Earlier results on one compound are cited in patent US6365128B1, “Monitoring gastrointestinal function to guide care of high risk patients” (Medical Defence Technologies, LLC, priority 1998, dated 2002).

Molecules are shown by their SMILES.

The conditions of this data set: in vivo.

Regarding `CSCC[C@H](NC(=O)[C@H](Cc1c[nH]c2ccccc12)NC(=O)CCNC(=O)OC(C)(C)C)C(=O)N[C@@H](CC(=O)O)C(=O)N[C@@H](Cc1ccccc1)C(N)=O` [Pentagastrin, pentagastrin], the half life entry is reported as “approximately 10 minutes”.
